Laboratory results as given in patent publication US5595983A, “Substituted piperazine 2-carboxylic acids useful in the treatment of central nervous system disorders” (British Technology Group Limited, priority 1984, dated 1997).
Where two headings read alike, the source gives them in different places.

Tests used:
[1] = system: motoneurones in the spinal cord; assay: Depression of monosynaptic (MS) and polysynaptic (PS) excitation of motoneurones in isolated hemisected spinal cord, elicited by dorsal root stimulation; format: cell-based, rat; conditions: for inhibition at 500 µM: test conc. 500 μM; for inhibition at 100 µM: test conc. 100 μM
Text: To evaluate actions of substances at amino acid receptors on nerve cells (neurones), the substances may be tested on spinal cord neurones, which have similar characteristics to nerve cells in the brain.
^1 Monosynaptic (MS) and polysynaptic (PS) excitation of motoneurones
in the spinal cord from 4-8 day old rats was elicited by electrical
stimulation of a dorsal root and recorded from the corresponding ventral
root. Figures relate to the depression of the magnitude of the two
components as measured respectively from oscilloscope traces and chart

[2] = system: 3-mercaptopropionate-induced convulsions; assay: Anticonvulsant activity against 3-mercaptopropionate-induced convulsions in mice; format: in vivo; conditions: for Anti-convulsant Activity (mice): relative anticonvulsant potency: mice injected with 3-MP 100 mg/kg, 3-MP and phosphonates subcutaneously, relative to AP7 = 1.0
Procedure: ^2 Relative anticonvulsant potencies of substances in mice injected
with 3mercaptopropionic acid (3MP), 100 mg/kg; 3MP and the phosphonates

neuronal NMDA receptors = assay: Relative potency as antagonists of NMDA-induced motoneuronal depolarization in spinal cord of 4-day-old rat; format: cell-based; conditions: 4-day-old rat spinal cord; bath administration; relative to AP5 = 1.0 (higher = more potent)
Text: (§1) ^1 Relative potencies of substances as antagonists of NMDAinduced
(§2) motoneuronal depolarization and as depressants of spontaneous and dorsal
(§3) rootevoked ventral root synaptic potentials in spinal cord of 4day-old
(§4) rat; bath administration of drugs.
(§5) 1 Relative potencies of substances as antagonists of NMDA-induced motoneuronal depolarization and as depressants of spontaneous and dorsal root-evoked ventral root synaptic potentials in spinal cord of 4-day-old rat; bath administration of drugs.

[3] = system: ventral root synaptic potentials in spinal cord; assay: Relative potency as depressants of spontaneous and dorsal root-evoked ventral root synaptic potentials in spinal cord of 4-day-old rat; format: cell-based; conditions: 4-day-old rat spinal cord, bath administration, relative to AP5 = 1.0
Text: as §1, §2, §3, §4, §5

kainate (K) receptors = assay: Reversal of kainate-induced motoneuronal depolarization, isolated 4-8 day old rat spinal cord; format: cell-based; conditions: Table 2
[4] = system: quisqualate (Q) receptors; assay: Reversal of quisqualate-induced motoneuronal depolarization, isolated 4-8 day old rat spinal cord; format: cell-based; conditions: Table 2
[5] = system: N-methyl-D-aspartate (NMDA) receptors; assay: Reversal of NMDA-induced motoneuronal depolarization, isolated 4-8 day old rat spinal cord; format: cell-based; conditions: Table 2
[6] = monosynaptic component, 4-8 day old rat spinal cord, read-out: Synaptic Excitation Percent depression MS
[7] = polysynaptic component, 4-8 day old rat spinal cord, read-out: Synaptic Excitation Percent depression PS

NC(CCCP(=O)(O)O)C(=O)O (racemic) [AP5, 2-amino-5-phosphonopentanoic acid, reference compound]
inhibition at 2 µM ([1]; polysynaptic component, test conc. 2 μM, 4-8 day old rat spinal cord, read-out: Synaptic Excitation Percent depression PS): 27% | Anti-convulsant Activity (mice): relative anticonvulsant potency [2]: 0.1

O=C(O)C1CN(CCCS(=O)(=O)O)CCN1 (racemic) [CPS, 3-(±)-2-carboxypiperazin-4-yl)-propane-1-sulphonic acid]
inhibition at 500 µM [1, 6]: 6% | inhibition at 500 µM [1, 7]: 32%

N[C@H](CCC(=O)NCC(=O)O)C(=O)O [γDGG, γ-D-glutamylglycine, reference compound]
inhibition at 700 µM ([1]; monosynaptic component, test conc. 700 μM, 4-8 day old rat spinal cord, read-out: Synaptic Excitation Percent depression MS): 24%

NC(CCCCCP(=O)(O)O)C(=O)O (racemic) [AP7, 2-amino-7-phosphonoheptanoic acid, reference compound]
inhibition at 3 µM ([1]; polysynaptic component, test conc. 3 μM, 4-8 day old rat spinal cord, read-out: Synaptic Excitation Percent depression PS): 28% | Depression of NMDA-induced excitation in rat spinal cord: relative potency (NMDA) (neuronal NMDA receptors): 0.75 | Depression of synaptic excitation in rat spinal cord: relative potency (Synaptic) [3]: 0.75

O=C(O)C1NCCN(C(=O)c2ccc(Br)cc2)C1C(=O)O (centres unmarked) [BBP, 4-(4-bromobenzoyl)-piperazine-2,3-dicarboxylic acid]
Potency as depressant of monosynaptic excitation compared with γDGG ([1]; Table 2): more potent as a depressant of monosynaptic excitation | inhibition at 100 µM [1, 6]: 24% | inhibition at 100 µM [1, 7]: 8% | Potency as antagonist of kainate-induced depolarizations compared with γDGG (kainate (K) receptors): more potent antagonist | Potency as antagonist of quisqualate-induced depolarizations compared with γDGG [4]: more potent antagonist

O=C(O)C1CN(CCCP(=O)(O)O)CCN1 (racemic) [CPP, 3-((±)-2-carboxypiperazin-4-yl)propyl-1-phosphonic acid]
Potency as antagonist of polysynaptic spinal excitation compared with AP5 and AP7 ([1]; Table 2): more potent | inhibition at 0.5 µM ([1]; polysynaptic component, test conc. 0.5 μM (printed 0 · 5), 4-8 day old rat spinal cord, read-out: Synaptic Excitation Percent depression PS): 28% | Potency as antagonist of NMDA compared with AP5 and AP7 [5]: more potent | Depression of NMDA-induced excitation in rat spinal cord: relative potency (NMDA) (neuronal NMDA receptors): 6 | Depression of synaptic excitation in rat spinal cord: relative potency (Synaptic) [3]: 4 | Anticonvulsant activity compared with AP7 ([2]; 3-mercaptopropionate-induced convulsions in mice, from Table 3): significantly higher anticonvulsant activity than AP7 | Anti-convulsant Activity (mice): relative anticonvulsant potency [2]: 2.5-5.0
